Laboratory results taken from patent US20250163047A1, “HETEROCYCLIC COMPOUNDS, COMPOSITIONS THEREOF, AND METHODS OF TREATMENT THEREWITH” (BeiGene, Ltd., priority 2022, published 2025).

What was measured:
Cbl-b (aa36-427) = target: T1, Cbl-b (aa36-427) (Homo sapiens, UniProt Q13191); assay: Co-expressed Cbl-b with BirA biochemical assay (CBLB/E2-Ub binding, HTRF); details: 0.6 nM Cbl-b co-expressed with BirA, HTRF; read-out: co-express CBLB/E2-Ub-binding assay IC50
T1 construct: Cbl-b (aa36-427, in-house); made in house
From the text: (§1) The assay in the absence of a Cbl-b/Cbl inhibitor, where phosphorylation of Cbl-b/Cbl by the Src kinase allows UbcH5B-Ub to bind to Cbl-b/Cbl and brings the Bodipy-Fluorescein tagged ubiquitin in proximity to the streptavidin-terbium bound to the N-terminal biotinylated Avi-tagged Cbl-b/Cbl. […] The lack of a FRET signal indicates Cbl-b/Cbl is inhibited by the Cbl-b/Cbl inhibitor.

Cbl (aa49-434) = target: T2, Cbl (aa49-434) (Homo sapiens, UniProt P22681); assay: Co-expressed Cbl with BirA biochemical assay (CBL/E2-Ub binding, HTRF); details: 0.6 nM Cbl co-expressed with BirA, read-out: co-express CBL/E2-Ub-binding assay IC50
T2 construct: Cbl (aa49-434, in-house); made in house
T2 sequence (P22681 49-434): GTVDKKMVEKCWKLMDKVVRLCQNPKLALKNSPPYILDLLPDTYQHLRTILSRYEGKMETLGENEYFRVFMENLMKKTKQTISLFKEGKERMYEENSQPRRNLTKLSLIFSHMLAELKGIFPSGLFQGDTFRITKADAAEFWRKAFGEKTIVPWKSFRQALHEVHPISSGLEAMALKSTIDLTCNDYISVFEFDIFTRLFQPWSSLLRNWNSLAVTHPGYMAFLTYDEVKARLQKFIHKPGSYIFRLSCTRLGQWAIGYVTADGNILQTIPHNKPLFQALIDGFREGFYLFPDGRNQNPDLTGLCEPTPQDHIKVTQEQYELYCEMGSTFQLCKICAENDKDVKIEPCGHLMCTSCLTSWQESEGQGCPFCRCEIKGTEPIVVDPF
From the text: as §1

T1 sequence (Q13191 36-427): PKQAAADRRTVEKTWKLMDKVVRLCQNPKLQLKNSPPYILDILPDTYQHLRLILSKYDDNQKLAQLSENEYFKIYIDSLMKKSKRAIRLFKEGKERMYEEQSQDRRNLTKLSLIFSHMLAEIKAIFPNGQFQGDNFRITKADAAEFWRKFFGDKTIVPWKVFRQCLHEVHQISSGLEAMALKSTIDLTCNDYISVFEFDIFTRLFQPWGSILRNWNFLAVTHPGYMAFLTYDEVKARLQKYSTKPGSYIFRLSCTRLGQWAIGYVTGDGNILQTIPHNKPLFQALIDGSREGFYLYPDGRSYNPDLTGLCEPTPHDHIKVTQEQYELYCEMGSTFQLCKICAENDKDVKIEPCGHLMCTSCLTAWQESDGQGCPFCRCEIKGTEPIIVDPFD

Compound | IC50 (Cbl-b (aa36-427)) | IC50 (Cbl (aa49-434))
C[C@H]1CCCN(Cc2cc(C(=O)Nc3cccc([C@]4(c5nncn5C)C[C@@H](CC#N)C4)c3)nc3c(F)c[nH]c23)C1 [Compound B11, N-(3-((1s,3R)-3-(cyanomethyl)-1-(4-methyl-4H-1,2,4-triazol-3-yl)cyclobutyl)phenyl)-3-fluoro-7-(((S)-3-methylpiperidin-1-yl)methyl)-1H-pyrrolo[3,2-b]pyridine-5-carboxamide] | 1.3 nM | 14.2 nM
C[C@H]1CCCN(Cc2cc(C(=O)Nc3cccc(C4(Cc5nncn5C)COC4)c3)nn3cccc23)C1 [Compound B12, N-(3-{3-[(4-methyl-1,2,4-triazol-3-yl)methyl]oxetan-3-yl}phenyl)-4-{[(3S)-3-methylpiperidin-1-yl]methyl}pyrrolo[1,2-b]pyridazine-2-carboxamide] | 23.9 nM | 51.6 nM
C[C@H]1CCCN(Cc2cc(C(=O)Nc3cccc([C@]4(c5nncn5C)C[C@@H](C)C4)c3)nn3cccc23)C1 [Compound B13, 4-{[(3S)-3-methylpiperidin-1-yl]methyl}-N-{3-[(1r, 3s)-3-methyl-1-(4-methyl-1,2,4-triazol-3-yl)cyclobutyl]phenyl}pyrrolo[1,2-b]pyridazine-2-carboxamide] | 30.5 nM | 89.1 nM
C[C@H]1CCCN(Cc2cc(C(=O)Nc3cccc([C@]4(c5nncn5C)C[C@@H](CC#N)C4)c3)nn3cccc23)C1 [Compound B14, 4-{[(3S)-3-methylpiperidin-1-yl]methyl}-N-{3-[(1s, 3s)-3-(cyanomethyl)-1-(4-methyl-1,2,4-triazol-3-yl)cyclobutyl]phenyl}pyrrolo[1,2-b]pyridazine-2-carboxamide] | 13.6 nM | 89.9 nM
Cn1cnnc1[C@]1(c2cncc(NC(=O)c3cc(CNCC4CCC4)c4ccsc4n3)c2)C[C@H](C)C1 [Compound B15, 4-(((cyclobutylmethyl)amino)methyl)-N-(5-((1s, 3s)-3-methyl-1-(4-methyl-4H-1,2,4-triazol-3-yl)cyclobutyl)pyridin-3-yl)thieno[2,3-b]pyridine-6-carboxamide] | 0.9 nM | 1.9 nM
C[C@H]1CCCN(Cc2cc(C(=O)Nc3cccc([C@]4(c5nncn5C)C[C@@H](CC#N)C4)c3)nc3c(Cl)c[nH]c23)C1 [Compound B16, 3-chloro-N-(3-((1s,3R)-3-(cyanomethyl)-1-(4-methyl-4H-1,2,4-triazol-3-yl)cyclobutyl)phenyl)-7-(((S)-3-methylpiperidin-1-yl)methyl)-1H-pyrrolo[3,2-b]pyridine-5-carboxamide] | 1.7 nM | 16.1 nM
Cn1cnnc1[C@]1(c2cccc(NC(=O)c3cc(CN[C@H]4CCC(F)(F)C4)c4[nH]ccc4n3)c2)C[C@H](CC#N)C1 [Compound B17, N-(3-((1s,3S)-3-(cyanomethyl)-1-(4-methyl-4H-1,2,4-triazol-3-yl)cyclobutyl)phenyl)-7-((((R)-3,3-difluorocyclopentyl)amino)methyl)-1H-pyrrolo[3,2-b]pyridine-5-carboxamide] | 1.22 nM | 3.84 nM
C[C@H]1CCCN(Cc2cc(C(=O)Nc3cccc([C@]4(c5nncn5C)C[C@@H](CC#N)C4)c3)nc3sccc23)C1 [Compound B18, 4-{[(3S)-3-methylpiperidin-1-yl]methyl}-N-{3-[(1s, 3s)-3-(cyanomethyl)-1-(4-methyl-1,2,4-triazol-3-yl)cyclobutyl]phenyl}thieno[2,3-b]pyridine-6-carboxamide] | 1.6 nM | 13 nM
C[C@@H]1CN(Cc2cc(C(=O)Nc3cccc([C@]4(c5nncn5C)C[C@@H](CC#N)C4)c3)nc3cc[nH]c23)C[C@H](C)C1(F)F [Compound B19, N-(3-((1s,3S)-3-(cyanomethyl)-1-(4-methyl-4H-1,2,4-triazol-3-yl)cyclobutyl)phenyl)-7-(((3R,5S)-4,4-difluoro-3,5-dimethylpiperidin-1-yl)methyl)-1H-pyrrolo[3,2-b]pyridine-5-carboxamide] | 10.3 nM | 77.7 nM
C[C@H]1CCCN(Cc2cc(C(=O)Nc3cccc([C@]4(Cc5nncn5C)C[C@@H](C#N)C4)c3)nc3c(F)c[nH]c23)C1 [Compound B20, N-(3-((1r,3S)-3-cyano-1-((4-methyl-4H-1,2,4-triazol-3-yl)methyl)cyclobutyl)phenyl)-3-fluoro-7-(((S)-3-methylpiperidin-1-yl)methyl)-1H-pyrrolo[3,2-b]pyridine-5-carboxamide] | 1.8 nM | 3.9 nM
Cc1c[nH]c2c(CNCC(C)C)cc(C(=O)Nc3cncc([C@]4(c5nncn5C)C[C@@H](C)C4)c3)nc12 [Compound B21, 7-((isobutylamino)methyl)-3-methyl-N-(5-((1s, 3s)-3-methyl-1-(4-methyl-4H-1,2,4-triazol-3-yl)cyclobutyl)pyridin-3-yl)-1H-pyrrolo[3,2-b]pyridine-5-carboxamide] | 2.2 nM | 7.5 nM
Cn1cnnc1[C@]1(c2cccc(NC(=O)c3cc(CNCC4CCC(F)(F)CC4)c4[nH]ccc4n3)c2)C[C@H](CC#N)C1 [Compound B22, N-(3-((1s, 3s)-3-(cyanomethyl)-1-(4-methyl-4H-1,2,4-triazol-3-yl)cyclobutyl)phenyl)-7-((((4,4-difluorocyclohexyl)methyl)amino)methyl)-1H-pyrrolo[3,2-b]pyridine-5-carboxamide] | 4 nM | 19.5 nM
Cn1cnnc1C[C@]1(c2cccc(NC(=O)c3cc(CNCC4(C)CCCC4)c4[nH]ccc4n3)c2)C[C@H](C#N)C1 [Compound B23, N-(3-((1r, 3r)-3-cyano-1-((4-methyl-4H-1,2,4-triazol-3-yl)methyl)cyclobutyl)phenyl)-7-((((1-methylcyclopentyl)methyl)amino)methyl)-1H-pyrrolo[3,2-b]pyridine-5-carboxamide] | 3.6 nM | 8.8 nM
Cn1cnnc1[C@]1(c2cccc(NC(=O)c3cc(CNC4(C)CC4)c4[nH]cc(Cl)c4n3)c2)C[C@H](CC#N)C1 [Compound B24, 3-chloro-N-(3-((1s, 3s)-3-(cyanomethyl)-1-(4-methyl-4H-1,2,4-triazol-3-yl)cyclobutyl)phenyl)-7-(((1-methylcyclopropyl)amino)methyl)-1H-pyrrolo[3,2-b]pyridine-5-carboxamide] | 0.9 nM | 17 nM
C[C@H](NCc1cc(C(=O)Nc2cccc([C@]3(c4nncn4C)C[C@@H](CC#N)C3)c2)nc2cc[nH]c12)C1CCCC1 [Compound B25, N-(3-((1s,3R)-3-(cyanomethyl)-1-(4-methyl-4H-1,2,4-triazol-3-yl)cyclobutyl)phenyl)-7-((((S)-1-cyclopentylethyl)amino)methyl)-1H-pyrrolo[3,2-b]pyridine-5-carboxamide] | 1.2 nM | 1.1 nM
Cn1cnnc1[C@]1(c2cccc(NC(=O)c3cc(CNC4(C)CC4)c4[nH]ccc4n3)c2)C[C@H](CC#N)C1 [Compound B26, N-(3-((1s, 3s)-3-(cyanomethyl)-1-(4-methyl-4H-1,2,4-triazol-3-yl)cyclobutyl)phenyl)-7-(((1-methylcyclopropyl)amino)methyl)-1H-pyrrolo[3,2-b]pyridine-5-carboxamide] | 1.3 nM | 4.1 nM
Cn1cnnc1[C@]1(c2cccc(NC(=O)c3cc(CNC4(C)CCC4)c4[nH]ccc4n3)c2)C[C@H](CC#N)C1 [Compound B27, N-(3-((1s, 3s)-3-(cyanomethyl)-1-(4-methyl-4H-1,2,4-triazol-3-yl)cyclobutyl)phenyl)-7-(((1-methylcyclobutyl)amino)methyl)-1H-pyrrolo[3,2-b]pyridine-5-carboxamide] | 1.2 nM | 8.4 nM
C[C@H](NCc1cc(C(=O)Nc2cccc([C@]3(c4nncn4C)C[C@@H](CC#N)C3)c2)nc2cc[nH]c12)C1CC1 [Compound B28, N-(3-((1s,3R)-3-(cyanomethyl)-1-(4-methyl-4H-1,2,4-triazol-3-yl)cyclobutyl)phenyl)-7-((((S)-1-cyclopropylethyl)amino)methyl)-1H-pyrrolo[3,2-b]pyridine-5-carboxamide] | 0.8 nM | 2.2 nM
CC(C)CNCc1cc(C(=O)Nc2cccc([C@]3(c4nncn4C)C[C@@H](CC#N)C3)c2)nc2cc[nH]c12 [Compound B29, N-(3-((1s, 3s)-3-(cyanomethyl)-1-(4-methyl-4H-1,2,4-triazol-3-yl)cyclobutyl)phenyl)-7-((isobutylamino)methyl)-1H-pyrrolo[3,2-b]pyridine-5-carboxamide] | 1.2 nM | 2.3 nM
Cc1c[nH]c2c(CNC3(C)CC3)cc(C(=O)Nc3cccc([C@]4(c5nncn5C)C[C@@H](CC#N)C4)c3)nc12 [Compound B30, N-(3-((1s, 3s)-3-(cyanomethyl)-1-(4-methyl-4H-1,2,4-triazol-3-yl)cyclobutyl)phenyl)-3-methyl-7-(((1-methylcyclopropyl)amino)methyl)-1H-pyrrolo[3,2-b]pyridine-5-carboxamide] | 1.4 nM | 8.8 nM
